Consider four molecules from paper PMC6949113, “Preclinical evaluation of AT-527, a novel guanosine nucleotide prodrug with potent, pan-genotypic activity against hepatitis C virus” (PLoS ONE, 2020).

The nature of data set [1]: Intracellular metabolism in human hepatocytes. Format: in vitro ADME. The method, then: (§1) Hepatocytes. […] Cryopreserved male mouse (CD1), and fresh male Beagle dog and male cynomolgus monkey hepatocytes were obtained from BioreclamationIVT (Baltimore, MD) and were similarly plated with Matrigel in 6- or 24-well plates and maintained overnight in InVitroGRO™HI medium with Torpedo™ antibiotic (BioreclamationIVT). The protocol described above for measuring AT-511 and its metabolites in Huh-7 cells was repeated with the five different hepatocytes. Untreated cells were collected at 24 h, and the protein content of the cell lysates were determined using a bicinchoninic acid protein assay kit to assess the number of cells in each incubation. Separately, plated human hepatocytes were incubated for 6 h with 100 μM AT-511, followed by washout periods of 0, 2, 6, 18 and 30 h.
(§2) S3 Protocol. LC-MS/MS analysis of AT-511 and metabolites in cultured cells. The supernatant extracts of each hepatocyte and Huh-7 cell incubation were separately analyzed by four different LC-MS/MS methods for quantitation of phosphoramidates, nucleosides, monophosphates, and triphosphates (methods 1, 2, 3 and 4, respectively), using synthetic reference standards of actually and potentially present compounds and using structurally related analogs as internal standards. Briefly, a Luna PFP (2), 5 µm, 100 x 4.6 mm column and an AB Sciex API-6500 mass spectrometer (ESI positive ion, MRM mode) were used for methods 1-3 and an XBridge Oligonucleotide, BEH C18, 2.5 µm, 50 x 2.1 mm column and a Thermo QE Plus mass spectrometer (electrospray, negative ion mode) were used for method 4. For methods 1 and 2, mobile phases A (10 mM ammonium acetate in water) and B (acetonitrile:methanol, 1:1, v/v) were used to elute samples (5 µL) at 1 mL/min with 15% B for 1.5 min followed by a linear gradient to 75% B over 1 min (method 1) or with 54% B for 1.3 min followed by a linear gradient to 90% B over 1.2 min. Method 3 was the same except mobile phase A was 0.3% acetic acid in water, […] and samples were eluted with 3% B for 3 min followed by a linear gradient to 55% B over 1.2 min. For method 4, mobile phase A (3 mM ammonium formate with 10 mM dimethylhexylamine (DMHA) in water) and mobile phase B (3 mM ammonium formate with 10 mM DMHA in acetonitrile:water, 1:1, v/v) were used to elute samples at 0.4 mL/min with 0% B for 1.5 min followed by a linear gradient to 100% B over 2 min and ending with an isocratic elution for 0.5 min at 100% B.

A short description of data set [2]: Monkey PK study, liver and heart tissue levels. Format: in vivo, cynomolgus monkey. The note with it: cynomolgus monkey, in vivo. The source says: (§3) Monkey PK study. Male non-naïve cynomolgus monkeys were obtained from Hainan Jingang Laboratory Animal Co., Ltd. (Hainan, China), group housed during the 5-day acclimation period or individually housed during the study in stainless steel mesh cages, provided ad libitum access to RO water, fed twice daily (~120 g Certified Monkey Diet daily; Beijing Vital Keao Feed Co., Ltd., Beijing, China) and given daily treats of fresh fruit. Additional environmental enrichment included classical music and cartoons. Three groups of 5 monkeys each were administered 30, 100 or 300 mg/kg AT-527 as a powder filled in empty porcine hard gelatin capsules (size 0). The monkeys were fasted overnight prior to dosing and fed 4 h after dosing. Three dosages were selected to provide assessments of dose proportionality, the top two representing potential doses for a repeated oral dose toxicity study in monkeys, and the lowest predicted to be more therapeutically relevant. A pill gun was used to place the capsule beyond the root of the animals’ tongues and their mouths were held loosely closed for approximately 30 sec to allow them to move the jaw and swallow the capsule. Immediately following capsule administration, 20 mL of water was given by mouth and then the mouth was opened to ensure the capsule was swallowed. Blood samples (~0.6 mL) were collected up to 72 h from three animals per dose group, and up to 4 h from the remaining two animals in each group, at the same time points described for rats. […] Blood samples were collected with a syringe from a peripheral blood vessel from restrained, non-sedated animals, immediately transferred to pre-chilled tubes containing ~1 mg K2EDTA•2H20 and 20 μL of 5 mM dichlorvos solution, mixed and placed on ice until plasma was prepared by centrifugation as described for rats. Immediately after centrifugation, plasma samples were extracted with 4 volumes ISS2, and the supernatants were clarified by centrifugation (12,000 rpm, 10 min, 4°C) and stored at ≤ -60°C until analyzed by LC-MS/MS as described below. After the 4-hr blood collection, two monkeys per dose group were anesthetized with intravenous injection of pentobarbital sodium (60 mg/kg) and then euthanized as described for rats. […] All analytes were quantitated by LC-MS/MS as described below.
For the analysis of AT-9010 in rat tissue homogenate supernatant, aliquots were diluted 1:2 with water and injected onto an Agilent Zorbax Extend C18 5 μm, 2.1 × 50 mm column and a Sciex API 4000 mass spectrometer (ESI positive ion, MRM mode). Mobile phases A (0.001% ammonia and 0.18 mM DBAA in water (1:1, v/v) and B (10 mM dimethylhexylamine (DMHA) and 3 mM AA in 50% ACN in water) were used to elute samples (60 μL) at 0.7 mL/min with 2% B for 0.8 min followed by a linear gradient to 30% B over 0.4 min, isocratic elution at 30% B for 0.4 min, a linear gradient to 95% B over 0.4 min, and ending with 95% B for 0.4 min. The analysis of AT-9010 in monkey tissue homogenate supernatant was the same except the sample injection volume was 20 μL. Attempts to measure tissue levels of other potentially formed TPs, including 2,6-diaminopurine-2’-F-2’-C-methylribosyl-5’-triphosphate and 2-amino-6-methylaminopurine-2’-F-2’-C-methylribosyl-5’-triphosphate (M2-TP), also used this method.
For the analysis of M2 and M3 in monkey tissue homogenate supernatant, aliquots were diluted 1:3 with water and injected onto an Acuity HSS T3 1.8 μm, 2.1 × 50 mm column and a Sciex API 6500 mass spectrometer (ESI positive ion, MRM mode). Mobile phases A (0.3% FA and 10 mM AA in water and B (0.3% FA and 10 mM AA in 95% ACN in water) were used to elute samples (1 μL) at 0.6 mL/min with 0% B for 0.4 min followed by linear gradients to 30% B over 0.5 min and to 95% B over 0.2 min, ending with isocratic elution at 95% B for 0.4 min.

For data set [3], the system named is K562 cells. The data set is described as follows: K562 cytotoxicity (XTT, 3 days). Format: cell-based, human. The note with it: 3 days. As to the method: (§4) Mitochondrial toxicity assay. K562 leukemia cells (ATCC, CCL-243) seeded in 96-well plates (1x10^5 cells/well) were incubated in triplicate with test or positive control compounds in RPMI containing glucose, 10% FBS and 2 mM L-glutamine. […] Viability was compared with untreated cells to determine TC50 values. Separately, K562 cells were incubated in triplicate with test compounds in glucose-free RPMI supplemented with 10 mM galactose. Test compounds diluted in RPMI containing glucose were evaluated in parallel.

Data set [4] deals with K562 cells. The data set can be described thus: Mitochondrial toxicity assay (Mitochondrial ToxGlo, glucose/galactose). Format: cell-based, human. As to the method: as §4
The test system of data set [5] is COX-1 protein in PC3 cells. The data set is described as follows: Mitobiogenesis toxicity assay, COX-1. Format: cell-based, human. As to conditions: 5 days, read-out: Mitogenesis IC50 COX-1. The method, then:
(§5) Mitobiogenesis toxicity assay. […] One plate was used to measure cell viability by XTT staining. Cells in the remaining two plates were fixed with 4% paraformaldehyde for 20 min, washed thrice with DPBS, and 0.5% acetic acid added for 5 min to block endogenous alkaline phosphatase activity. Nuclear DNA encoded Complex II SDH-A mitochondrial protein and mitochondrial encoded Complex IV COX-1 protein were measured spectrophotometrically using the Abcam Mitobiogenesis ELISA kit (Cambridge, UK) per the manufacturer’s instructions.

For a further data set, the system named is PC3 cells. The data set can be described thus: PC3 cytotoxicity (XTT, 5 days). Format: cell-based, human. As to conditions: 5 days. As to the method: as §5
Background: Tetrazolium assays rely on reduction of a dye to a coloured formazan, in cell work by metabolically active cells.

The test system of data set [6] is SDH-A protein in PC3 cells. The data set is described as follows: Mitobiogenesis toxicity assay, SDH-A. Format: cell-based, human. The note with it: 5 days, read-out: Mitogenesis IC50 SDH-A. The method, then:
as §5

The nature of data set [7]: Rat pharmacokinetic study, plasma. As to conditions: for plasma concentration, individual rats: AT-527 500 mg/kg oral, male 1-3, female 7-9, BQL: <0.0017 AT-511, <0.0022 M1, <0.0032 AT-273, M4. Format: in vivo, Sprague-Dawley rat.
Data set [8] can be described thus: Intracellular metabolism in mouse hepatocytes. Format: in vitro ADME, mouse (CD1). As to conditions: low to undetectable. The method, then: as §1, §2
A short description of the next data set: Monkey PK study, plasma.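 As to plasma concentration: concentrations in nmol/mL.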 Format: in vivo, cynomolgus monkey. The note with it: for plasma concentration: male cynomolgus monkeys; for AUC(0-t) / Cmax / MRT last / Tmax: male, cynomolgus, cynomolgus monkey, in vivo, po.
Excerpt: as §3
LC-MS/MS analysis of rat and monkey plasma and tissue homogenate supernatants. For the analysis of AT-511 in rat plasma, aliquots were extracted with 10 volumes ISS2. The supernatants were clarified by centrifugation (4000 rpm for 10 min at 4°C) and 3 μL samples were injected onto an Acuity BEH C18 1.7 μm, 2.1 × 50 mm column and a Sciex API 4000 mass spectrometer (ESI positive ion, MRM mode). Mobile phases A (0.025% formic acid (FA) and 1 mM ammonium acetate (AA) in 5% ACN in water) and B (0.025% FA and 1 mM AA in 95% ACN in water) were used to elute samples (3 μL) at 0.6 mL/min with 10% B for 0.3 min followed by linear gradients to 60% B over 0.6 min and to 90% B over 0.2 min, and ending with 90% B for 0.4 min.
PK data analysis. […] The linear/log trapezoidal rule was applied in obtaining the PK parameters.

Data set [9] is described as follows: Intracellular metabolism in dog hepatocytes. Format: in vitro ADME, Beagle dog. The note with it: low to undetectable. As to the method: as §1, §2
Setting [10] is: both sexes, Sprague-Dawley, rat, in vivo, po, 500 mg/kg.

Like-named read-outs stand apart in the source and are kept apart here. A value given as a limit tells only on which side of the number the result lay.

The IC50 is the concentration that gives 50% inhibition. For orientation: AUC(0-t) means the area under the concentration-time curve up to a stated or last time point. Broadly, the Cmax is the maximum level reached in the sampled fluid or tissue. For orientation: MRT last means a mean duration of stay, worked out from the concentration-time curve. What is called Tmax is the time at which the peak concentration occurs.

As to `CNc1nc(N)nc2c1ncn2[C@@H]1O[C@H](COP(=O)(O)OP(=O)(O)OP(=O)(O)O)[C@@H](O)[C@@]1(C)F` [5’-TP of M2, 2-amino-6-methylaminopurine-2’-F-2’-C-methylribosyl-5’-triphosphate], the intracellular detection result in [1] was “not detected”. Moreover, in [2], the “concentration in liver and heart tissue” value is on record as less than 110 pmol/g.
`N#CC(C#N)=NNc1cccc(Cl)c1` [CCCP]: the “Cytotoxicity TC50” value came to 8.8 µM with K562 cells [3] (K562 cells, glucose medium, XTT) and 17.7 µM in the data set with PC3 cells (PC3 cells, XTT). In addition, the IC50 was less than 0.6 µM in the data set with K562 cells [4] (K562, glucose-free galactose medium, 2 h, inhibition of cellular ATP levels, read-out: MF (Gal) IC50, mitochondrial function); 7 µM in the data set with K562 cells [4] (K562, glucose-free galactose medium, 2 h, measure of necrosis, read-out: MI (Gal) IC50, cell membrane integrity); 15.1 µM in data set [5]; 13.5 µM in data set [6].
Regarding `O=C(N[C@H](CO)[C@H](O)c1ccc([N+](=O)[O-])cc1)C(Cl)Cl` [Chloramphenicol], the “Cytotoxicity TC50” value in the data set with K562 cells [3] (human) is 50.9 µM; with PC3 cells (human), greater than 100 µM. Besides, the concentration for half-maximal inhibition (IC50) was greater than 100 µM with K562 cells [4] (Homo sapiens, K562, 2 h, read-out: MF (Gal) IC50, mitochondrial function); greater than 100 µM with K562 cells [4] (Homo sapiens, K562, glucose-free galactose medium, 2 h, measure of necrosis, read-out: MI (Gal) IC50, cell membrane integrity); 95.3 µM in data set [5] (Homo sapiens, PC-3, 120 h); greater than 100 µM in data set [6] (Homo sapiens, PC-3, 120 h).
Take `CNc1nc(N)nc2c1ncn2[C@@H]1O[C@H](CO)[C@@H](O)[C@@]1(C)F` [M4]: the “intracellular levels of nucleoside metabolites” value is given as less than 10 pmol/10^6 cells in data set [1] (human hepatocytes, low to undetectable); less than 10 pmol/10^6 cells in data set [8]; less than 10 pmol/10^6 cells in [9]. In addition, the “plasma concentration, individual rats” value in data set [7] (48.0 h) and in [7] (72.0 h) was “BQL” in each case. Besides, the AUC(0-t) in [7] (setting [10]) is 207 ± 56.1 µM·h; in “Monkey PK study, plasma” (30 mg/kg), 18.2 ± 1.7 µM·h; in “Monkey PK study, plasma” (100 mg/kg), 39.2 ± 15 µM·h; in the data set “Monkey PK study, plasma” (300 mg/kg) it was 53.9 ± 31.7 µM·h. In addition, the Cmax in data set [7] (setting [10]) was 28.8 ± 8.5 µM; in “Monkey PK study, plasma” (30 mg/kg), 670 ± 140 nM; in “Monkey PK study, plasma” (100 mg/kg), 1300 ± 490 nM; in the data set “Monkey PK study, plasma” (300 mg/kg), 1660 ± 490 nM. Also, the MRT last in [7] (setting [10]) came out at 6.41 ± 1.06 h; in “Monkey PK study, plasma” (30 mg/kg), 22.4 ± 2.4 h; in “Monkey PK study, plasma” (100 mg/kg), 22.3 ± 4.1 h; in “Monkey PK study, plasma” (300 mg/kg), 26.6 ± 9.6 h. Besides, the plasma concentration entry is “BQL” in “Monkey PK study, plasma” (single oral AT-527 100 mg/kg, 0.500 h, monkey 1); “BQL” in the data set “Monkey PK study, plasma” (single oral AT-527 100 mg/kg, 72.0 h, monkey 2); “BQL” in “Monkey PK study, plasma” (single oral AT-527 300 mg/kg, 0.500 h, monkey 1); “BQL” in “Monkey PK study, plasma” (single oral AT-527 300 mg/kg, 0.500 h, monkey 2); “BQL” in the data set “Monkey PK study, plasma” (single oral AT-527 300 mg/kg, 0.500 h, monkey 3); “BQL” in “Monkey PK study, plasma” (single oral AT-527 300 mg/kg, 1.00 h, monkey 1). The plasma concentration result in the data set “Monkey PK study, plasma” (single oral AT-527 300 mg/kg, 72.0 h, monkey 3) was “BQL”. Besides, the Tmax was 14.7 ± 8.1 h in the data set “Monkey PK study, plasma” (30 mg/kg); 15.3 ± 7.6 h in the data set “Monkey PK study, plasma” (100 mg/kg); 17.3 ± 11.5 h in the data set “Monkey PK study, plasma” (300 mg/kg).
